Paper PMC10528299, “Targeting FAK/PYK2 with SJP1602 for Anti-Tumor Activity in Triple-Negative Breast Cancer” (Current Issues in Molecular Biology, 2023)

Experiments:
Test in all cases: Eurofins kinase profiling
Type in all cases: biochemical
Yes(h) = biological target: T1, Yes(h) (Homo sapiens, UniProt P07947); conditions: read-out: residual kinase activity Yes(h)
T1 construct: purchased Eurofins KinaseProfiler
Method in brief: (§1)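 At a fixed 1 µM, the compound was profiled against each kinase, whose activity was quantified through radiolabeled phosphate incorporation.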

c-RAF(h) = biological target: T2, c-RAF(h) (Homo sapiens, UniProt P04049); conditions: read-out: residual kinase activity c-RAF(h)
T2 construct: purchased Eurofins KinaseProfiler
Method in brief: as §1

Aurora-A(h) = biological target: T3, Aurora-A(h) (Homo sapiens, UniProt O14965); conditions: read-out: residual kinase activity Aurora-A(h)
T3 construct: purchased Eurofins KinaseProfiler
T3 sequence (O14965 1-403): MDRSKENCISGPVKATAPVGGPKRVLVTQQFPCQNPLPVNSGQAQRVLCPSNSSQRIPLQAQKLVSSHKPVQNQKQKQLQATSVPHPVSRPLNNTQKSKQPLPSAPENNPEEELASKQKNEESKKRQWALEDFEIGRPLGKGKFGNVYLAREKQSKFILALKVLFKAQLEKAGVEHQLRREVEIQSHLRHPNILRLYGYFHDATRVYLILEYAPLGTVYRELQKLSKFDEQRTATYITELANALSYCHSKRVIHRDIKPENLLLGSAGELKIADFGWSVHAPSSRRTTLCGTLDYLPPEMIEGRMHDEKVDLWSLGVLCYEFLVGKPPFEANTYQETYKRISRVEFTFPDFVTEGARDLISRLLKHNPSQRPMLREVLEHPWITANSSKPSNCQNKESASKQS
Method in brief: as §1

[1] = biological target: T4, PI3 Kinase (p110a(H1047R)/p85a)(h) (Homo sapiens, UniProt P42336, H1047R); conditions: read-out: residual kinase activity PI3 Kinase (p110a(H1047R)/p85a)(h)
T4 construct: purchased Eurofins KinaseProfiler
Method in brief: as §1

B-Raf(V599E)(h) = biological target: T5, B-Raf(V599E)(h) (Homo sapiens, UniProt P15056, V600E); conditions: read-out: residual kinase activity B-Raf(V599E)(h)
T5 construct: purchased Eurofins KinaseProfiler
Method in brief: as §1

EphB4(h) = biological target: T6, EphB4(h) (Homo sapiens, UniProt P54760); conditions: read-out: residual kinase activity EphB4(h)
T6 construct: purchased Eurofins KinaseProfiler
T6 sequence (P54760 16-987): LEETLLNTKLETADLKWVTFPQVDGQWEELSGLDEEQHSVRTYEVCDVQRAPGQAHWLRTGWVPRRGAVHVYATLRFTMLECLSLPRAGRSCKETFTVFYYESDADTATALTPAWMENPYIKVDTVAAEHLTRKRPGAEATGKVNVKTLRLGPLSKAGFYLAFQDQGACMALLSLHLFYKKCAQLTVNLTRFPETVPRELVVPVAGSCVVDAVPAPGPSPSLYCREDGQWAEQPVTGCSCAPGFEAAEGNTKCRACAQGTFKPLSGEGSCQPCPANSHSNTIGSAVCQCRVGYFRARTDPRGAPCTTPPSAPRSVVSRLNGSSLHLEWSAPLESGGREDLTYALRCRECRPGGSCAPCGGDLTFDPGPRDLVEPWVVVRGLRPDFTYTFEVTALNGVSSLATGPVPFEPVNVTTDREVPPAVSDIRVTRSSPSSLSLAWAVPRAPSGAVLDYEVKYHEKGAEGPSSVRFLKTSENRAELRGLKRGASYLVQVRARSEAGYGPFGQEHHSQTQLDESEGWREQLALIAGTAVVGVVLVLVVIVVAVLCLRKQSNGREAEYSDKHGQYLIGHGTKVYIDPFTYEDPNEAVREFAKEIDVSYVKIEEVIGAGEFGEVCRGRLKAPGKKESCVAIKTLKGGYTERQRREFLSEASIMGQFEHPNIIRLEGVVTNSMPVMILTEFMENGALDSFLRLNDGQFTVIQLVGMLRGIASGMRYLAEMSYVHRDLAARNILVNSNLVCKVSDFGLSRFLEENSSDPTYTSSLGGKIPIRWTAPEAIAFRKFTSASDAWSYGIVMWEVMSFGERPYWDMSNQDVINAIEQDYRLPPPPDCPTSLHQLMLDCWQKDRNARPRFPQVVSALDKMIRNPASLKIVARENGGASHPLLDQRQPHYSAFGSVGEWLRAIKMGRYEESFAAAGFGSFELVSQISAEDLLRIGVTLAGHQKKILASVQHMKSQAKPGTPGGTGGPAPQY
Method in brief: as §1

ZAP-70(h) = biological target: T7, ZAP-70(h) (Homo sapiens, UniProt P43403); conditions: read-out: residual kinase activity ZAP-70(h)
T7 construct: purchased Eurofins KinaseProfiler
T7 sequence (P43403 1-619): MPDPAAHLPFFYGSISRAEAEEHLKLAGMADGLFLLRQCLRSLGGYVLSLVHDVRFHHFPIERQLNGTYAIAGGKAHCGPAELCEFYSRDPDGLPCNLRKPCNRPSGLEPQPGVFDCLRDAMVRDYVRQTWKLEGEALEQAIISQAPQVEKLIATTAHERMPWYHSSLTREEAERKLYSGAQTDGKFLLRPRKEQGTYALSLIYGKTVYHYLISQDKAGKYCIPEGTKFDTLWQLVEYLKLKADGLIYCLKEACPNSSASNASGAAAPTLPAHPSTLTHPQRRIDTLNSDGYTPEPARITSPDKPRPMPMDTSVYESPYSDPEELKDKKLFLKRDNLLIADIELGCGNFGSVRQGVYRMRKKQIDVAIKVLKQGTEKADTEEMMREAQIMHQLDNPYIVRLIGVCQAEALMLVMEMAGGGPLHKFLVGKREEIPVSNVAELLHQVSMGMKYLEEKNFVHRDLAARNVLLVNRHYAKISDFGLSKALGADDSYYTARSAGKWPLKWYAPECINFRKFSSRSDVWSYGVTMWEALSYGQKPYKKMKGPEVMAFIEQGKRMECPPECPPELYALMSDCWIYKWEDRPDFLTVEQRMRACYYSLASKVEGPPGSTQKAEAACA
Method in brief: as §1

T4 sequence (P42336 whole entry H1047R): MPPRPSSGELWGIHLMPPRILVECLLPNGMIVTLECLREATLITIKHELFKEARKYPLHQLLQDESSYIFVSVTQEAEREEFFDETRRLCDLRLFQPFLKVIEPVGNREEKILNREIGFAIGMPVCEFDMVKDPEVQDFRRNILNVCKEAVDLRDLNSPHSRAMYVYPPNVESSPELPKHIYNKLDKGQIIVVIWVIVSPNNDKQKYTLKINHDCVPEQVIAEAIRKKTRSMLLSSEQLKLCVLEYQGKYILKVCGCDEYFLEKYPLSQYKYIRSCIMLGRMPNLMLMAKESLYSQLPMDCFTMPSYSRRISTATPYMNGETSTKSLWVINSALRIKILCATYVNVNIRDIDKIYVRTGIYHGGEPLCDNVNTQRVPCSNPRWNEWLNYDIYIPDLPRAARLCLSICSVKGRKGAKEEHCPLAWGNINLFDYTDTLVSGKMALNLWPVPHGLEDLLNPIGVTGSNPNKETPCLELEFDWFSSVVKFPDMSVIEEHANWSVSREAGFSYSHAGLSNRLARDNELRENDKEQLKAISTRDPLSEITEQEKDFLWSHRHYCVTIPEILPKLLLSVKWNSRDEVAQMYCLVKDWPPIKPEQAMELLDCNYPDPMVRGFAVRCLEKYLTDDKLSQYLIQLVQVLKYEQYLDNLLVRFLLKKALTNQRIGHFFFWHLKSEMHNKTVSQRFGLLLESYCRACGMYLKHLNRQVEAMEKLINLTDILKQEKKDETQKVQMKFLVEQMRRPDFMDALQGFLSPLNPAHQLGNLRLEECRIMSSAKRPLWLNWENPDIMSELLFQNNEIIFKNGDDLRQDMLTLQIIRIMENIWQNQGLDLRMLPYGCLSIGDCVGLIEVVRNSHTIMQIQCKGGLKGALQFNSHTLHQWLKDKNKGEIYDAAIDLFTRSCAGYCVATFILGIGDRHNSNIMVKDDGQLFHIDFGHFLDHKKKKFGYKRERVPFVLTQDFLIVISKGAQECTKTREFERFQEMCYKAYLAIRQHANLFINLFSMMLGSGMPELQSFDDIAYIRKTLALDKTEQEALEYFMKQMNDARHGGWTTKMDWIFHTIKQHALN
T4 sequence (P27986 whole entry partner): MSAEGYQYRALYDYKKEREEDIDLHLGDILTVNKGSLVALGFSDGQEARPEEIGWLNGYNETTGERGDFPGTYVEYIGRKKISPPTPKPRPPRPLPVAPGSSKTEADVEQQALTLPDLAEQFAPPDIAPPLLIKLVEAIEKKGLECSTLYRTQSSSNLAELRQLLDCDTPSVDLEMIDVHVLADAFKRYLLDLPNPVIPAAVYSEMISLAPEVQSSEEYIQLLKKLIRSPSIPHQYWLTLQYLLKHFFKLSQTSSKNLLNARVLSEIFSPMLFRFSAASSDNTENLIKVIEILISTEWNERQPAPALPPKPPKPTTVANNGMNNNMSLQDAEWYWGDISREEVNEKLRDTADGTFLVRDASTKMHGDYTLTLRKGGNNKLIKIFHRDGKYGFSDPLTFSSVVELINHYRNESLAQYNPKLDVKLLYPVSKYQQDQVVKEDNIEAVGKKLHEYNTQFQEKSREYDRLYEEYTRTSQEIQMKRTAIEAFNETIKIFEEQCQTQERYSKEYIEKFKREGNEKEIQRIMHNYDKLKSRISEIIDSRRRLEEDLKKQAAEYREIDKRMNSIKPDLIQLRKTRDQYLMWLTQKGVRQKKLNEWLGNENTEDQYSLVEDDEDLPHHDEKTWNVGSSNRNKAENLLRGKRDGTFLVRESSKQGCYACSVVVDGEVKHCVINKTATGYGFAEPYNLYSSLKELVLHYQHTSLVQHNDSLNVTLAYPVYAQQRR
T5 sequence (P15056 417-766 V600E limits assumed): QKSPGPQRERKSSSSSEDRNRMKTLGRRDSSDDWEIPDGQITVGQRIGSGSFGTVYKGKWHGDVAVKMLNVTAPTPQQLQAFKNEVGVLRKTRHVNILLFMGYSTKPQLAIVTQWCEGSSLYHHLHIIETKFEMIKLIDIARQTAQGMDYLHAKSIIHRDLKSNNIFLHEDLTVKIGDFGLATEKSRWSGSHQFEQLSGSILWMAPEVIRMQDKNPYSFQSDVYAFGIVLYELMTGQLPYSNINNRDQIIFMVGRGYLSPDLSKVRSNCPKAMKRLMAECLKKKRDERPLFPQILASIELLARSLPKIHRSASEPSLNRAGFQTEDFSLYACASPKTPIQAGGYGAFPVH
T1 sequence (P07947 whole entry): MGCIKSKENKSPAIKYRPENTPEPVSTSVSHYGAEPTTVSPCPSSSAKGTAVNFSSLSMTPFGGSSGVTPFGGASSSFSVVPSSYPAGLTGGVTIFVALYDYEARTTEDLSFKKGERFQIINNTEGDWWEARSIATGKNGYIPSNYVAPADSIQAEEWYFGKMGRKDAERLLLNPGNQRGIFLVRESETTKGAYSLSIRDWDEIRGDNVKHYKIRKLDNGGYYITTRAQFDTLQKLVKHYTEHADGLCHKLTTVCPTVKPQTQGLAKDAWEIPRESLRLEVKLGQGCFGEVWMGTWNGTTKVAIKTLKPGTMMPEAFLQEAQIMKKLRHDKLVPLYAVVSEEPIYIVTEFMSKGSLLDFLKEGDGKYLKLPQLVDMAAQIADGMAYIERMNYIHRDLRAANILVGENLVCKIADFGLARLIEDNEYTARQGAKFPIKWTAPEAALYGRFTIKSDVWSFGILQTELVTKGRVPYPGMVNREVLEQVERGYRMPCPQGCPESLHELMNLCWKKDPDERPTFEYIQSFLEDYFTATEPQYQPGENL
T2 sequence (P04049 whole entry): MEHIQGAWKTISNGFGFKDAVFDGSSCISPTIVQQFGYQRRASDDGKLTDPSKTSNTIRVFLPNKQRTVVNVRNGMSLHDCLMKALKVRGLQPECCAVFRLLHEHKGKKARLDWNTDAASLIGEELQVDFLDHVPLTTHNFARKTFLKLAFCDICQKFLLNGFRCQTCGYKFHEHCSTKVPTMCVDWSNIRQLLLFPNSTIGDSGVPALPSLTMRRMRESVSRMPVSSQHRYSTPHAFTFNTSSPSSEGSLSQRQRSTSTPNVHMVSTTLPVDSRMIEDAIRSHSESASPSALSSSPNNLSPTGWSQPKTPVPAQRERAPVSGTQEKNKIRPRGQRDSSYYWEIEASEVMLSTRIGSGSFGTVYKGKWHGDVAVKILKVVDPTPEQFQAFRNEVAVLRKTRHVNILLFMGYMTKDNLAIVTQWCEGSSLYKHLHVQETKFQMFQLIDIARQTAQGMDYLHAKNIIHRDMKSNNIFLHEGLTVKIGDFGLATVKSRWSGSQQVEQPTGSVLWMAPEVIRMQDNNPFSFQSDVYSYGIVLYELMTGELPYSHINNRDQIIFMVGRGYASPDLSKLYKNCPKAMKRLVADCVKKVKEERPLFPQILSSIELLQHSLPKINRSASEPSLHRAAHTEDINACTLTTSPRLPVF

remaining activity at 1 µM (Yes(h)) [%] | remaining activity at 1 µM (c-RAF(h)) [%] | remaining activity at 1 µM (Aurora-A(h)) [%] | remaining activity at 1 µM [1] [%] | remaining activity at 1 µM (B-Raf(V599E)(h)) [%] | remaining activity at 1 µM (EphB4(h)) [%] | remaining activity at 1 µM (ZAP-70(h)) [%] | SMILES
56 | 80 | 12 | 101 | 89 | 67 | 139 | CNC(=O)c1ccc(Nc2ncc(C(F)(F)F)c(NCc3nccnc3N(C)S(C)(=O)=O)n2)cc1 [VS-6063, Defactinib]
99 | 72 | 43 | 97 | 67 | 94 | 105 | CONC(=O)c1ccccc1Nc1cc(Nc2cc(C)nn2C(C)C)ncc1Cl [GSK2256098]

SMILES | remaining activity at 1 µM (Yes(h)) [%] | remaining activity at 1 µM (c-RAF(h)) [%] | remaining activity at 1 µM (Aurora-A(h)) [%] | remaining activity at 1 µM [1] [%] | remaining activity at 1 µM (B-Raf(V599E)(h)) [%] | remaining activity at 1 µM (EphB4(h)) [%] | remaining activity at 1 µM (ZAP-70(h)) [%]
CNC(=O)c1cccc(C)c1Nc1nc(Nc2ccc(N3CCN(C4C5CC6CC4CC(O)(C6)C5)CC3)cc2OC)ncc1C(F)(F)F (stereo not drawn) [SJP1602, 2-((2-((4-(4-((2s,5r)-5-hydroxyadamantan-2-yl)piperazin-1-yl)-2-methoxyphenyl)amino)-5-(trifluoromethyl)pyrimidin-4-yl)amino)-N,3-dimethylbenzamide] | 84 | 90 | 48 | 97 | 105 | 93 | 124
